Results published in patent US20090238808A1, “Process for the identification of novel enzyme interacting compounds” (priority 2005, published 2009).

Experiments:
Test in all cases: Kinobeads elution with test compound, mouse brain lysate, MS
Assay type in all cases: binding
Settings in all cases: kinase released from kinobeads by specific elution
CaMKK2 = CaMKK2 (Mus musculus, UniProt Q8C078)
Procedure: (§1) This example illustrates competitive elution of proteins bound to kinobeads with non-modified test compounds (see particularly the fourth aspect of the invention). The kinobeads (as described in example 1) were contacted with mouse brains lysate, bound proteins were eluted with various test compounds and the released proteins were analysed by mass spectrometry.
(§2) The kinobeads were contacted with mouse brain lysate under conditions that allow the binding of the proteins in the lysate to the ligands. The binding conditions were close to physiological by choosing suitable buffer conditions preserving the function of the proteins. After removing non-captured proteins through a gentle washing procedure the bound proteins were contacted with a test compound for protein elution.
(§3) Various test compounds (see section 2.7) were used to release bound proteins following these steps:
(§4) 1. Resuspend beads with bound proteins (section 2.4) in 1×DP buffer/0.2% NP-40 as 1:3 slurry (volume/volume). 2. Transfer 20 μl the 1:3 slurry into MoBiTech columns (equivalent to 5 μl of beads). 3. Place the column into an Eppendorf tube and centrifuge it for 15 seconds at 800 rpm at 4° C. Close columns with lower lid. 4. Add 10 μl elution buffer containing 1.0 mM of the test compound (concentration ranges of 0.1 to 1.0 mM are suitable). As a control use elution buffer containing 2% DMSO or 2% DMF dependent on the solvent used for dissolving the test compound. Close column with upper lid. 5. Incubate for 30 minutes at 4° C. in an Eppendorf incubator at 700 rpm. 6. Open column (first top, then bottom), put column back into siliconized tube (SafeSeal Microcentrifuge Tubes, cat. no 11270, Sorenson BioScience, Inc.). To harvest the eluate centrifuge 2 minutes at 2.000 rpm in table top centrifuge at room temperature. The typical volume of the eluate is approximately 15 μl. 7. Add 5 μl 4× NuPAGE SDS Sample Buffer (Invitrogen, NP0007) containing 100 mM DTT (DTT has to be added just prior to use). 8. Incubate for 30 minutes at 50° C. 9. Add 1/10 volume of 200 mg/ml iodoacetamide, incubate for 30 min at room temperature, protect from light. This reaction leads to the alkylation of cysteines for mass spectrometry. 10. Before loading samples onto the gel, centrifuge samples for 5 minutes at 15.000 rpm in order to remove precipitates. 11. For protein separation apply 10 μl sample to NuPAGE 4-12% Bis-Tris gel (Invitrogen, NPO335). 2.6 Preparation of Stock Solutions used in this Protocol
(§5) Search criteria varied depending on which mass spectrometer was used for the analysis.

EphA4 = EphA4 (Mus musculus, UniProt Q03137)
Procedure: as §1, §2, §3, §4, §5

EphB2 = biological target: T1, EphB2 (Mus musculus, UniProt P54763)
T1 sequence (P54763 19-986): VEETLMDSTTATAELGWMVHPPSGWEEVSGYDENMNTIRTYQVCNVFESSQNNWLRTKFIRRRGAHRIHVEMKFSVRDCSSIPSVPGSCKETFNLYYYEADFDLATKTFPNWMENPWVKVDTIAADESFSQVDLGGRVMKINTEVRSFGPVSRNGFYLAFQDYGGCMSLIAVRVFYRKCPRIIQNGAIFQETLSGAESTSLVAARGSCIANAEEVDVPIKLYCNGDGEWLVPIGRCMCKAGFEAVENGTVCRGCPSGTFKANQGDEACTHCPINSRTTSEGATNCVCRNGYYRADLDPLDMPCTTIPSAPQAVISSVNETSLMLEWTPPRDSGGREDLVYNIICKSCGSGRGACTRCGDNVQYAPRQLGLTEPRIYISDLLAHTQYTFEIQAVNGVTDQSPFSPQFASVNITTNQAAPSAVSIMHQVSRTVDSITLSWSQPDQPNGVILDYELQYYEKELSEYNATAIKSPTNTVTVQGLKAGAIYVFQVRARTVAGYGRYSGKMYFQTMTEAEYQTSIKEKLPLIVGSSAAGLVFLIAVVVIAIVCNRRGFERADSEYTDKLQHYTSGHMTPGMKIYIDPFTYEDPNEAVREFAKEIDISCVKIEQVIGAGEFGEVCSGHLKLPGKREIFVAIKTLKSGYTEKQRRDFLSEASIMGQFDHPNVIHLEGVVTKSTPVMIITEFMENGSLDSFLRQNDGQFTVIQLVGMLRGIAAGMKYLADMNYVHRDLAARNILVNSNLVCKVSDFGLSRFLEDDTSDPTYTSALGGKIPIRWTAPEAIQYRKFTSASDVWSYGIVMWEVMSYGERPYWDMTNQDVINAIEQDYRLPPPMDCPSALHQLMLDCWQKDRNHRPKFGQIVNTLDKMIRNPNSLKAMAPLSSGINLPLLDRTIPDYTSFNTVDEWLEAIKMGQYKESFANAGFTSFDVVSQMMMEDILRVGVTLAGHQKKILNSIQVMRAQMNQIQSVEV
Procedure: as §1, §2, §3, §4, §5

Erk2 = biological target: T2, Erk2 (Mus musculus, UniProt P63085)
T2 construct: […]; from tissue; host or cells: mouse brain
Procedure: as §1, §2, §3, §4, §5

FER = FER (Mus musculus, UniProt P70451)
Procedure: as §1, §2, §3, §4, §5

RSK3 = biological target: T3, RSK3 (Mus musculus, UniProt P18653)
T3 construct: from tissue; host or cells: mouse brain
Procedure: as §1, §2, §3, §4, §5

SRC = biological target: T4, SRC (Mus musculus, UniProt P05480)
T4 construct: from tissue; host or cells: mouse brain
Procedure: as §1, §2, §3, §4, §5

YESps = system: YESps
Procedure: as §1, §2, §3, §4, §5

MAP2K1 = biological target: T5, MAP2K1 (Mus musculus, UniProt P31938)
T5 construct: from tissue; host or cells: mouse brain
Procedure: as §1, §2, §3, §4, §5

T5 sequence (P31938 whole entry): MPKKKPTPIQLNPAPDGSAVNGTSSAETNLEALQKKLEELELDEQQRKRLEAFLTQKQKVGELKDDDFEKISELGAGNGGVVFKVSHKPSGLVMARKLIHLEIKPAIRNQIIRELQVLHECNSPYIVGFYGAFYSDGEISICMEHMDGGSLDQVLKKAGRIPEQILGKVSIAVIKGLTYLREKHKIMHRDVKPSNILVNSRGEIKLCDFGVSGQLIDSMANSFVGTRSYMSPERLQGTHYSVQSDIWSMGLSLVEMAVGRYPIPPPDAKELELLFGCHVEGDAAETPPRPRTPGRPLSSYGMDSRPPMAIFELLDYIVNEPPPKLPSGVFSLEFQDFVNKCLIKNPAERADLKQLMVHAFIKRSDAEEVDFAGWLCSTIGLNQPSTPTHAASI
T3 sequence (P18653 whole entry): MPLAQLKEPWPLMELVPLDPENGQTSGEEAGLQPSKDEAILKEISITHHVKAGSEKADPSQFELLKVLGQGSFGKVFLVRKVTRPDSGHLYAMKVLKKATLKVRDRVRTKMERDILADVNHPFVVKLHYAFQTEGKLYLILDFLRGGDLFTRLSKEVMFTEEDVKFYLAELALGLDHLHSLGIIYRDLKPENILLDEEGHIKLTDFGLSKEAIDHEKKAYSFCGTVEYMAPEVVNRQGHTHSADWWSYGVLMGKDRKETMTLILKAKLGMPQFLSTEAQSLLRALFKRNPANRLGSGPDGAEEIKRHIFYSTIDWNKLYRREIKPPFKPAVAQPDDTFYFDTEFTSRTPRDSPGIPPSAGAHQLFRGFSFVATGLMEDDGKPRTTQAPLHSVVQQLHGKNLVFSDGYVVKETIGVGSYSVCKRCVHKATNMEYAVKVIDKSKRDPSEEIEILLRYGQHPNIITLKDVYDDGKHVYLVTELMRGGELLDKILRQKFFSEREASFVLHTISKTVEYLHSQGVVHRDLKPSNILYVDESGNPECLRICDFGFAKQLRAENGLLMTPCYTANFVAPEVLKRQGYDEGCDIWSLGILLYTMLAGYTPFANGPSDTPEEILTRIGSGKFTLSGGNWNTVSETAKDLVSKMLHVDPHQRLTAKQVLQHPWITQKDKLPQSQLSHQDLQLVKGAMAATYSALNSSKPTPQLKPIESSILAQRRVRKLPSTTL
T4 sequence (P05480 whole entry): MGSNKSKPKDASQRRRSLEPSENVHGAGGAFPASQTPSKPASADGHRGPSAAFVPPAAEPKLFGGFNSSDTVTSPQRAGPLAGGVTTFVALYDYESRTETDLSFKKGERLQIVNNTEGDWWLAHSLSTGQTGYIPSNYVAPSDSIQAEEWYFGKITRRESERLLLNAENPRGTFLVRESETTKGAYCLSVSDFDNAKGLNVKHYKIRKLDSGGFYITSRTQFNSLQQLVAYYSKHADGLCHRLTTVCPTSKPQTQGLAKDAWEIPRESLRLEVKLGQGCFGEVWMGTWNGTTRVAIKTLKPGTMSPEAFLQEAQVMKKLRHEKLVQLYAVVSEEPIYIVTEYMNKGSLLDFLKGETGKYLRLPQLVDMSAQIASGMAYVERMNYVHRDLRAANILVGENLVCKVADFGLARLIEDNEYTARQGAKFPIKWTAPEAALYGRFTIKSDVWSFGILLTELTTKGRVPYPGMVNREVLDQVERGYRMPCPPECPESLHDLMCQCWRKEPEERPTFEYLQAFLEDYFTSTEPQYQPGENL
Sequence of EphA4 (Q03137 20-986): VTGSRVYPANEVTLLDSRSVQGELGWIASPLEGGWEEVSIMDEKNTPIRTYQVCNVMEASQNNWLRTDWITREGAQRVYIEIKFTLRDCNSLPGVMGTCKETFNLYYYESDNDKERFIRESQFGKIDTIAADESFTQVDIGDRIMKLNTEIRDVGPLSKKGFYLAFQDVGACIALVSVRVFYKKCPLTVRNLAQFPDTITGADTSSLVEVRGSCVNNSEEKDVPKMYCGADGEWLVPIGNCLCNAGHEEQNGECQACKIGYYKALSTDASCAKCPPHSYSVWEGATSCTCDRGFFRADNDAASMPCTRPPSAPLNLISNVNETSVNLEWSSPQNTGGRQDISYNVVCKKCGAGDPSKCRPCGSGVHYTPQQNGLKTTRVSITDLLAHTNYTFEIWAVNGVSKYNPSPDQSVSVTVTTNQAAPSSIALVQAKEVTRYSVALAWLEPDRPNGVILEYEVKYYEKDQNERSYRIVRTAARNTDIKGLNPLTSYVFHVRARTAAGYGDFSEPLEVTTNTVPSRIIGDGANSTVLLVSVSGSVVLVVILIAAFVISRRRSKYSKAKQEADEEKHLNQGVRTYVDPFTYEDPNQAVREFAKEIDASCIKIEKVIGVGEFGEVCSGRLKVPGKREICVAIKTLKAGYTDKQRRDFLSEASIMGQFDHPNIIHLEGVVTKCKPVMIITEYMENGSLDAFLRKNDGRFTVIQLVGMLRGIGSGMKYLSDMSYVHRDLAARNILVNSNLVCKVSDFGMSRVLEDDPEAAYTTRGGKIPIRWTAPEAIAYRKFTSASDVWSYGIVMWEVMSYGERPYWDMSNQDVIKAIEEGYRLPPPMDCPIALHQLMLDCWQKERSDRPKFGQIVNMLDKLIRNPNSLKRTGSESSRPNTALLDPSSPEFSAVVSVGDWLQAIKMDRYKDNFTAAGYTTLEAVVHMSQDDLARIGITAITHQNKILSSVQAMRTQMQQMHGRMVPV
Sequence of FER (P70451 whole entry): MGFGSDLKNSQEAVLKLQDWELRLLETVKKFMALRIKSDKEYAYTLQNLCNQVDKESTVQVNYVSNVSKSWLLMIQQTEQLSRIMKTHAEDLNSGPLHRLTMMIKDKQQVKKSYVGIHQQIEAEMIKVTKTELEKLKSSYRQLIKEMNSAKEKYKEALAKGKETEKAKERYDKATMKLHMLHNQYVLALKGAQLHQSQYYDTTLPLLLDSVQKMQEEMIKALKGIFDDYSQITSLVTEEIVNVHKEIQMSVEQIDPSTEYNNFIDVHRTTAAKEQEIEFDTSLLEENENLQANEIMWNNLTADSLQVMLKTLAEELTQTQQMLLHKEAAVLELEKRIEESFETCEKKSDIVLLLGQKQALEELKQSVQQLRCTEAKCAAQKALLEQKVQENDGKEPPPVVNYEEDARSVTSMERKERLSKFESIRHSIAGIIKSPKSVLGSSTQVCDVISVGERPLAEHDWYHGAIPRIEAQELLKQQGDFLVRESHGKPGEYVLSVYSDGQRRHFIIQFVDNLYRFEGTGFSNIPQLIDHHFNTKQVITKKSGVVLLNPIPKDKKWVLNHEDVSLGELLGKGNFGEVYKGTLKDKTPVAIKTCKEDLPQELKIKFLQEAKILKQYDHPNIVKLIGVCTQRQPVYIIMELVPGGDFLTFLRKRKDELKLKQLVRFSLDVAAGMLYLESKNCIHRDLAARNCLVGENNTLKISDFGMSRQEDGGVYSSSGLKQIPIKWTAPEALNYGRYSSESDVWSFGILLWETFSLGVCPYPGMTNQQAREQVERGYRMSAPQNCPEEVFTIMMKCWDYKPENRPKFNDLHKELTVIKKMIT
Sequence of CaMKK2 (Q8C078 whole entry): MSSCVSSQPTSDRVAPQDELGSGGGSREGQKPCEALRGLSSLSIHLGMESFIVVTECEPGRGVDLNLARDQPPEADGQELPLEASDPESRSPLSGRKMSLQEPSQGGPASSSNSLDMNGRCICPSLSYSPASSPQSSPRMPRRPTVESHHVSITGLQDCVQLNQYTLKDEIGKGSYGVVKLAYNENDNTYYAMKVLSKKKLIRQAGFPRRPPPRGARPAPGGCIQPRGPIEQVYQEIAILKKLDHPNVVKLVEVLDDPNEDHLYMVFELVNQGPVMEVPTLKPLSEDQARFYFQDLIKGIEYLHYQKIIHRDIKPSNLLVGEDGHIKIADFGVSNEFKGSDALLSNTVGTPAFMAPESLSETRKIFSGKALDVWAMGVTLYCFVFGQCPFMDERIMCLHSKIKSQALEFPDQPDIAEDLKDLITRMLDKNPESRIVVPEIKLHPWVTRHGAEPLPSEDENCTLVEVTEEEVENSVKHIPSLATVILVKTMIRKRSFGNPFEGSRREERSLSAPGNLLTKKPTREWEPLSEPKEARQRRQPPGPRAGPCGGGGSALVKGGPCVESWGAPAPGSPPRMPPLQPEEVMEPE
T2 sequence (P63085 whole entry): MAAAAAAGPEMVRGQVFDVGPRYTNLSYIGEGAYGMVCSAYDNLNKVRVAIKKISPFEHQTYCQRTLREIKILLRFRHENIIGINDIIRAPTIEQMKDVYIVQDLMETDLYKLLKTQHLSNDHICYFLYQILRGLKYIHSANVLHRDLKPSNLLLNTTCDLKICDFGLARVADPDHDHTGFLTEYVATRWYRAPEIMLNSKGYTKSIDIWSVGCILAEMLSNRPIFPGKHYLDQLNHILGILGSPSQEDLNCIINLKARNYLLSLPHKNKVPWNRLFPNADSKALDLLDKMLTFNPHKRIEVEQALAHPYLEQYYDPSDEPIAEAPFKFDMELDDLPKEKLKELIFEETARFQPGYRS

Row | SMILES | mass spectrometry score, CaMKK2 (CaMKK2) | number of identified peptides, CaMKK2 (CaMKK2) | mass spectrometry score, EphA4 (EphA4) | number of identified peptides, EphA4 (EphA4) | mass spectrometry score, EphB2 (EphB2) | number of identified peptides, EphB2 (EphB2) | mass spectrometry score, Erk2 (Erk2) | number of identified peptides, Erk2 (Erk2) | mass spectrometry score, FER (FER) | number of identified peptides, FER (FER) | number of identified peptides, RSK3 (RSK3) | mass spectrometry score, SRC (SRC) | number of identified peptides, SRC (SRC) | mass spectrometry score, MAP2K1 (MAP2K1) | number of identified peptides, MAP2K1 (MAP2K1) | mass spectrometry score, YESps (YESps) | number of identified peptides, YESps (YESps)
1 | CNC1CC2OC(C)(C1OC)n1c3ccccc3c3c4c(c5c6ccccc6n2c5c31)C(=O)NC4 (centres unmarked) [CZC9280] | 282 | 10 | 332 | 11 | 114 | 4 | – | – | 818 | 21 | 21 | 546 | 13 | 49 | 2 | 480 | 12
2 | CC(C)[C@H](CO)Nc1nc(Nc2ccc(C(=O)O)c(Cl)c2)c2ncn(C(C)C)c2n1 [Purvalanol B, reference compound] | 465 | 9 | 1702 | 37 | 1334 | 30 | 1437 | 115 | 322 | 8 | 11 | 544 | 13 | 78 | 2 | 304 | 7
3 | CCCCCCCCCCCCOS(=O)(=O)[O-].[Na+] [SDS] | 338 | 10 | 727 | 33 | 437 | 19 | 1023 | 102 | 275 | 11 | 6 | 419 | 25 | 90 | 4 | 236 | 13

Now from value to compound, other results behind:

Row | mass spectrometry score, CaMKK2 (CaMKK2) | number of identified peptides, CaMKK2 (CaMKK2) | mass spectrometry score, EphA4 (EphA4) | number of identified peptides, EphA4 (EphA4) | mass spectrometry score, EphB2 (EphB2) | number of identified peptides, EphB2 (EphB2) | mass spectrometry score, Erk2 (Erk2) | number of identified peptides, Erk2 (Erk2) | mass spectrometry score, FER (FER) | number of identified peptides, FER (FER) | number of identified peptides, RSK3 (RSK3) | mass spectrometry score, SRC (SRC) | number of identified peptides, SRC (SRC) | mass spectrometry score, MAP2K1 (MAP2K1) | number of identified peptides, MAP2K1 (MAP2K1) | SMILES | mass spectrometry score, YESps (YESps) | number of identified peptides, YESps (YESps)
4 | 101 | 3 | 1233 | 32 | 1004 | 22 | 1179 | 235 | 388 | 11 | 12 | 351 | 9 | – | – | Cn1c(=O)c(-c2c(Cl)cccc2Cl)cc2cnc(Nc3ccc(CN)cc3)cc21 [CZC7324] | – | –
5 | 522 | 12 | 138 | 3 | 149 | 5 | 810 | 46 | 100 | 2 | – | – | – | – | – | NCc1ccc(Nc2ncc(F)c(Nc3ccccc3)n2)cc1 [CZC00008004] | 110 | 3
